Data taken from US10807951B2, “mTORC1 modulators” (THE REGENTS OF THE UNIVERSITY OF CALIFORNIA, priority 2017, dated 2020).

What was measured:
RagC and RagA = assay: Rag GTPase lysosomal localization, immunofluorescence in HeLa cells; assay type: cell-based; settings: 50 μM, 1 h
Procedure: Next, we sought to determine whether YP 1-44 had expected cellular effects in disrupting the TORC1 complex, recruitment of TORC1 to the lysosome, and TORC1 signaling. We treated Hela cells with YP 1-44 for 1 h with and without amino acid stimulation. […] This finding is consistent with the role of Lamtor as an obligate scaffold not only for mTORC1 but also for the Rag GTPases at the lysosome. […] Thus, our results establish that YP 1-44 abolishes mTORC1 signaling both in vitro and in live cells by preventing mTORC1 localization to the lysosome, and that this action occurs via disruption of the Lamtor-Rag scaffold.
HeLa cells were plated on fibronectin-coated glass coverslips in 6-well plates (35 mm diameter/well), at 300,000-500,000 cells/well. 12-16 hours later, cells were subjected to amino acid depletion for 1 h in the presence of 50 uM compounds or an equivalent volume of DMSO, restimulated with a complete amino acid mix for 10 minutes, and fixed in 4% paraformaldehyde (in PBS) for 15 min at RT. The coverslips were rinsed twice with PBS and cells were permeabilized with 0.1% (w/v) Saponin in PBS for 10 min. After rinsing twice with PBS, the slides were incubated with primary antibody in 5% normal donkey serum for 1 hr at room temperature, rinsed four times with PBS, and incubated with fluorophore-conjugated secondary antibodies produced in goat or donkey (Life Technologies, diluted 1:1000 in 5% normal donkey serum) for 45 min at room temperature in the dark, washed four times with PBS. Coverslips were mounted on glass slides using Vectashield (Vector Laboratories) and imaged on a spinning disk confocal system (Andor Revolution on a Nikon Eclipse Ti microscope).

LAMTOR5 [1] = biological target: T1, LAMTOR5 (Homo sapiens, UniProt O43504); assay: Rhodamine labeling with alkyne probe on purified Lamtor-Rag complexes; assay type: binding; settings: excess unlabeled compound
Source text: (§1) FIGS. 8A-8B. (FIG. 8A) Structures of CC 2-11 and CC 1-44. CC 2-11 bears an alkyne group on a separate ring from the cysteine-reactive warhead. The presence of the alkyne group enables us to directly label the modified target protein (e.g. Lamtor5) with biotin or rhodamine groups, either in gels or in complex proteomes. […] Thus, CC 2-11 allows precise mapping of the target cysteines as well as accurate identification of the off-targets.
as §1, with “We also synthesized a” for “FIGS. 8A-8B. (FIG. 8A) Structures of”, “1-44 derivative, named” for “2-11 and”, “2-11, which” for “1-44. CC 2-11”, “warhead (FIG. 8A).” for “warhead.”, “will allow” for “allows”

LAMTOR5 [2] = biological target: T1, LAMTOR5; assay: Gel-based ABPP against IA-alkyne labeling of pure LAMTOR5 protein; assay type: binding
Source text: FIGS. 9A-9C. Potency and selectivity of YP 1-44 analogs. (FIG. 9A) initial YP 1-44 analogs and their relative potency against IA-alkyne labeling of pure human LAMTOR5 protein visualized by gel-based ABPP (a). Protein expression levels were also ascertained by silver staining (b). (FIG. 9B) Gel-based ABPP IA-alkyne cysteine-reactivity analysis of YP 1-44 analogs against Rag-Ragulator complex proteins (a). Protein expression levels were also ascertained by silver staining (b). (FIG. 9C) Hela whole cell proteome gel-based ABPP analysis of IA-alkyne cysteine-reactivity with YP 1-44 analogs (a). Protein expression levels were also ascertained by silver staining (b).
Thus, we performed medicinal chemistry to optimize the potency and selectivity of our initial hits by addition of further bulk to the core YP 1-44 scaffold (FIGS. 9A-9C; FIG. 5B). We initially screened these compounds against both LAMTOR5 and the Ragulator complex using gel-based ABPP methods competing the binding of these YP 1-44 analogs against IA-alkyne labeling of these proteins (FIG. 5C, FIG. 9). We also tested these compounds against Hela cell whole proteome cysteine reactivity to get initial read-outs of proteome-wide selectivity (FIGS. 9A-9C, FIG. 5D).

mTORC2 = assay: p-AKT signaling in Hela cells by immunoblotting; assay type: cell-based; settings: up to 50 μM
autophagy = assay: Autophagy induction in tissues of injected mice; assay type: in vivo; settings: 100 mg/kg vs rapamycin 10 mg/kg, heart, skeletal muscle, kidney
mTORC1 = mTORC1 signaling in tissues of injected mice; settings: injection 100 mg/kg, heart, skeletal muscle, kidney

Compound	RagA localization to LAMP2-positive lysosomes (RagC and RagA)	RagC localization to LAMP2-positive lysosomes (RagC and RagA)	RagA localization to LAMP2-positive lysosomes (RagC and RagA; listed as YP1-44)	RagC localization to LAMP2-positive lysosomes (RagC and RagA; listed as YP1-44)	competition of CC 2-11 rhodamine labeling signal (LAMTOR5 [1])	potency against IA-alkyne labeling of LAMTOR5 (LAMTOR5 [2])	effect on canonical mTORC2 substrate pAKT (mTORC2)	autophagy induction compared to rapamycin (autophagy)	autophagy induction compared to rapamycin (autophagy; listed as C 1-44)	mTORC1 signaling as assessed by phospho-S6 and 4EBP1 (mTORC1)
C=CC(=O)n1ccc2ccccc21 [YP 1-44]	no longer localized to the lysosome	no longer localized to the lysosome	causes dispersion of RagA from LAMP2-positive lysosomes	causes dispersion of RagC from LAMP2-positive lysosomes	–	–	–	–	–	–
C=CC(=O)N1CCc2c(OCc3cc(C(F)(F)F)cc(C(F)(F)F)c3)cccc21 [CC 1-44]	–	–	–	–	competes	desirable potency	did not affect	superior potency to rapamycin	much stronger autophagy induction as compared to rapamycin	dramatic inhibition of mTORC1 signaling
